A value given as a limit tells only on which side of the number the result lay.

In this experiment the target is T1, human CXCR3 (N-delta 4) (Homo sapiens, UniProt P49682).
T1 construct: CD8 leader (N); Flag tag (N); expressed in transfected cells; host or cells: mouse pro-B Ba/F3 cells, stably transfected with pME18Sneo-hCXCR3 (N-delta 4); membrane preparation
T1 sequence (P49682 5-368 limits assumed): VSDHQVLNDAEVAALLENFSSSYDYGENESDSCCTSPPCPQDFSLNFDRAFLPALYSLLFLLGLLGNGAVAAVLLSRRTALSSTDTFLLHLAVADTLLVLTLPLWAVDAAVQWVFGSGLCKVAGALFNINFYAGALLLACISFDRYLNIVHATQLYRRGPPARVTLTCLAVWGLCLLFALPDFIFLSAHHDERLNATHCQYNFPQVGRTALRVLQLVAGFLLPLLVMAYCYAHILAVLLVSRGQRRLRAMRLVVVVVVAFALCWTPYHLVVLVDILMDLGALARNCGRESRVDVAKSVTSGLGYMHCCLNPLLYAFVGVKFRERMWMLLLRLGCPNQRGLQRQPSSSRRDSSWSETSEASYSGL
Description: Human CXCR3 (N-delta 4) Scintillation Proximity Assay (SPA), [125I] IP-10 binding. The conditions noted are these: IC50 rating; Ba/F3-hCXCR3 (N-delta 4) membranes, 25 pM [125I] IP-10; read-out: IC50. Put shortly:
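Membranes from mouse Ba/F3 pro-B cells stably expressing Flag-tagged human CXCR3 (N-delta 4), 2 μg per point, bound to WGA SPA beads. Compound titrations competed with 25 pM [125I] IP-10 for 3 hr at room temperature in HEPES buffer with Ca2+, Mg2+, NaCl, 1.0% BSA; bead-bound radioactivity counted, […] values reported.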
(Scintillation proximity formats need no separation of bound from free tracer.)
The term IC50 denotes the midpoint of a concentration-inhibition curve. Consider `CC[C@H]1CN(c2nc(N)c(-c3nnc(N)o3)nc2Cl)CCN1C1CCN(Cc2ccc(C#N)cc2)CC1` [Compound 9], for which the IC50 is less than 25 nM. Turning to `CC[C@H]1CN(c2nc(N)c(-c3nnc(N)o3)nc2Cl)CCN1C1CCN(Cc2ccc(Cl)nc2)CC1` [Compound 15], the IC50 was less than 25 nM.

Regarding `CC[C@H]1CN(c2nc(N)c(-c3nnc(C)o3)nc2Cl)CCN1C1CCN(C(=O)c2cc(F)c(Cl)nc2N)CC1` [Compound 19], the IC50 was less than 25 nM. As to `CC[C@H]1CN(c2nc(N)c(-c3nnc(C)o3)nc2Cl)CCN1C1CCN(C(=O)c2ccc(Cl)cc2NC(=O)C(F)(F)F)CC1` [Compound 74], the half-inhibitory concentration (IC50) was in the range of 25 to 100 nM. In the case of `CCNc1nnc(-c2cnc(N3CCN(C4CCN(C(C(=O)OC)c5ccc(Cl)cc5)CC4)[C@@H](CC)C3)c(C)n2)o1` (stereo partly drawn) [Compound 182] it was less than 25 nM; in that of `CC[C@H]1CN(c2ncc(-c3nnc(C)[nH]3)nc2C)CCN1C1CCN(C(=O)c2ccc(Cl)cc2)CC1` [Compound 53], less than 25 nM.

The record behind these values is patent US7868006B2, “Heterocyclic substituted piperazines with CXCR3 antagonist activity” (Schering Corporation, priority 2005, dated 2011).
